{"source": "patent EP0570714B1", "about": "“Use of aminoalcohol-N-acylderivatives for the manufacture of a medicament for the treatment of neurogenic endoneural oedema of the peripheral nerve” (LIFEGROUP S.p.A., priority 1992, dated 1993)", "key": {"mast cells": {"system": "mast cells", "test": "Mast cell degranulation after crushing of the sciatic nerve (in vivo, histological count)", "set-up": "species or system Male Spraugue Dawley Rats", "settings": "20 mg/kg intraperitoneally for 15 days, on soy lecithin liposomes, sciatic nerve compression at 16th day, sacrifice three hours after, control average 61.4", "experimental": "In order to verify the pharmacological activity of N-acyl derivatives of aminoalcohols, and in particular of N-PEA, under conditions of traumatic noxa due to crushing of the sciatic nerve, and therefore able to induce mast cells degranulation, the following \"in vivo\" biologic test was carried out.\nMale Spraugue Dawley Rats weighing about 200 -250 g were divided into two groups and subjected for 15 days to two different treatments: the first group, being the control group, was intraperitoneally treated with a solution of liposomes of soy lecithin, whereas the second group was intraperitoneally treated with 20 mg/kg N-PEA vehiculated on soy lecithin liposomes.\nAt the 16th day the animals were subjected to a bland general anesthesia with ethyl ether, thereby proceeding to the operation of the nerve lesion as hereinbelow described. The left sciatic nerve was exposed just in the spot of its entrance to the haunch, by operating a dissection of the muscular bands. The thus exposed sciatic nerve was then repeatedly compressed as closest as possible to its origin, by using a crushing forceps. The wound was temporarily sewn up and the animals were left to recover.\nThree hours after the sciatic nerve compression lesion the animals were sacrificed in order to take the sciatic nerve samples and to fix it for the histological analysis with a mixture of acetic acid and formalin. […]"}, "[1]": {"test": "Physical chemical characteristics: solubility", "type": "physicochemical", "excerpt": "The physical chemical characteristics of the N-PEA product synthesized according to the present example were the following : […]"}}, "note": "Several values for one entry are separate records, joined by “and”; a condition that tells them apart may be missing. Equal values may be shown once."}
{"compound": "CCCCCCCCCCCCCCCC(=O)NCCO", "note": "[N-PEA, N-(2-hydroxyethyl)hexadecanamide]", "values": [{"measurement": "Number of degranulated cells on a total of 100 examined cells, average", "setting": "mast cells; average of 5 rats", "value": 36.6}, {"measurement": "Number of degranulated cells on a total of 100 examined cells", "setting": "mast cells; individual rats, 20 mg/kg", "value": "35 and 44 and 37 and 25 and 42"}, {"measurement": "solubility in water", "setting": "[1]", "value": "insoluble"}, {"measurement": "solubility in organic solvent", "setting": "[1]; solvents in which soluble", "value": "Hot MetOH, CHCl3, DMSO"}, {"measurement": "solubility in aqueous vehicles", "setting": "[1]; stated as the reason for choosing the liposome vehicle", "value": "poor solubility"}]}
